This passage reports EC50 and Emax results from patent US20260076975A1, “TPK AGONIST AND METHOD FOR USING SAME TO TREAT NEURODEGENERATIVE DISEASES” (SHANGHAI RAISING PHARMACEUTICAL CO., LTD., priority 2022, published 2026).

Like-named read-outs stand apart in the source and are kept apart here.

For the assay, the target named is TPK enzyme (Homo sapiens, UniProt Q9H3S4). The experiment in a line: TPK enzyme activity test (TDP formation from thiamine and ATP, HPLC detection). It counts as biochemical. The method, then: The purpose of this example was to test the promoting effect of compounds on TPK enzyme activity and evaluate the in vitro activity of the compounds based on EC50 and Emax.
1.1) The constant-temperature water-bath shaker was pre-heated half an hour in advance at a pre-heating temperature of 37° C.
1.2) The stock solution of the compound to be tested was taken out, allowed to thaw at room temperature, and then diluted to the required concentration.
1.3) The required reagents were placed on ice to thaw.
2.1) For each reaction system, TPK enzyme solution, Tris-HCl buffer solution, and ATP solution were added. The concentration of ATP used was 1-500 mM. The above three solutions were formulated into a homogeneous mixture.
2.2) The mixture of the above three solutions was dispensed into centrifuge tubes. Then, the compound at the required concentration was added to each centrifuge tube. Finally, thiamine solution (1-100 μM) was added. After the addition of the above system was completed, the centrifuge tubes were tightly capped, inserted into a floating board, and placed in the constant-temperature water-bath shaker that had been pre-heated to 37° C. for incubation for 0.5-2.0 hours.
2.3) After the incubation was completed, perchloric acid stop solution was added and mixed well. Samples were taken into 1.5 mL centrifuge tubes and stored at −20° C.
3.1) The samples stored at −20° C. were taken out, thawed at room temperature, and then subjected to derivatization treatment. The samples were placed in centrifuge tubes, a potassium ferricyanide derivatization reagent was added, and finally phosphoric acid stop solution was added to stop the reaction.
3.2) The derivatized samples were placed in sample vials for liquid chromatography analysis, and the contents of TDP/thiamine were detected by high performance liquid chromatography. TKP enzyme activity=TDP (nM)/mg protein/min.
The effects of the compounds of the present invention on TPK enzyme activity at different concentrations were determined according to the above procedures.

Setting [1] is: promoting effect on TPK enzyme activity.
[2] abbreviates: promoting effect on TPK enzyme activity, calculated with the effect of DMSO on TPK enzyme activity as 100%, read-out: Emax.

TPK enzyme, sequence (Q9H3S4 whole entry): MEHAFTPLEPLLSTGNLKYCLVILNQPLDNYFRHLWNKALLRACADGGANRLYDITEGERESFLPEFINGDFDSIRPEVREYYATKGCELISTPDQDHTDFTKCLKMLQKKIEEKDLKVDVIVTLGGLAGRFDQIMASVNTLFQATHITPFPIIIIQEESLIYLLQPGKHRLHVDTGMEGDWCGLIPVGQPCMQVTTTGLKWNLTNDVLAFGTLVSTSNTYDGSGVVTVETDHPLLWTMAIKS

Take `Cc1cccc(NC(=O)CSCC(=O)N2CCN(c3cc(C(F)(F)F)cc(C(F)(F)F)c3)CC2)c1` [Compound 45, 2-((2-(4-(3,5-bis(trifluoromethyl)phenyl)piperazin-1-yl)-2-oxoethyl)thio)-N-(m-tolyl)acetamide]: it took 1.07 µM to reach a half-maximal effect under setting [1] (EC50). Also, the Emax – broadly, the size of the effect at its maximum, as opposed to the concentration needed – under setting [2] is 152%. With `CN(c1cccc(Cl)c1Cl)[C@@H]1CCN(CCCCOc2ccc3c(c2)NC(=O)CC3)C1` [Compound 133, (R)-7-(4-(3-((2,3-dichlorophenyl)(methyl)amino)pyrrolidin-1-yl)butoxy)-3,4-dihydroquinolin-2(1H)-one], under setting [1], the midpoint of the response, the EC50, lay at 10.8 µM. In addition, the maximal effect (Emax) under setting [2] is 167%. For `COc1cccc2cc(C(=O)N3CCN(c4cccc(C(F)(F)F)c4)CC3)c(=O)oc12` [Compound 150] the same measures were 0.139 µM and 212%.

Molecule `Cc1ccc2c(n1)N(CCCCCN1CCN(c3cc(Cl)ccc3C)CC1)CCO2` [Compound 77, 4-(5-(4-(5-chloro-2-methylphenyl)piperazin-1-yl)pentyl)-6-methyl-3,4-dihydro-2H-pyrido[3,2-b][1,4]oxazine] returned a maximal response (Emax) of 146%. On to `Cc1ccc2c(n1)N(CCC(=O)NCCN1CCN(c3cc(Cl)ccc3C)CC1)CCO2` [Compound 76, N-(2-(4-(5-chloro-2-methylphenyl)piperazin-1-yl)ethyl)-3-(6-methyl-2,3-dihydro-4H-pyrido[3,2-b][1,4]oxazin-4-yl)propanamide], for which the half-maximal effective concentration (EC50) (in general, the concentration giving half of the maximal effect) under setting [1] is 3.46 µM. The maximum response (Emax) under setting [2] is 147%.

Regarding `Clc1cccc(N2CCN(CCCOc3ccc4ncsc4c3)CC2)c1Cl` [Compound 28, 6-(3-(4-(2,3-dichlorophenyl)piperazin-1-yl)propoxy)benzo[d]thiazole], under setting [1], the EC50 was determined as 1.54 µM. In addition, the Emax under setting [2] is 185%. Regarding `COc1cc2c(cc1OC)C(CCCCC(=O)NCc1ccc(C(C)C)cc1)C(=O)N2` (stereo not shown) [Compound 132, 5-(5,6-dimethoxy-2-oxoindolin-3-yl)-N-(4-isopropylbenzyl)pentanamide], the maximal effect (Emax) under setting [2] is 120%. Under setting [1], `O=C1NCCN1CCN1CCC(c2cn(-c3ccc(F)cc3)c3ccc(Cl)cc23)CC1` [Compound 136] had a concentration for a half-maximal effect (EC50) of 2.79 µM. Under setting [2], the Emax was 137%. The like results for `Cc1cc(=O)oc2cc(OCC(=O)N3CCN(c4cccc(C(F)(F)F)c4)CC3)ccc12` [Compound 148] were, in that order, 1.23 µM and 165%. The like results for `CCCc1cc(=O)n2nc(N3CCC(C(=O)NCc4ccc(CC)cc4)CC3)sc2n1` [Compound 151] were, in that order, 3.36 µM and 155%.

`CC(C)(C)NC(=O)NC(=O)CN1CCC(c2c[nH]c3ccccc23)CC1` [Compound 137] had an EC50 under setting [1] of 110 µM. In addition, the Emax under setting [2] is 146%. For `O=c1ccc2ccc(OCCCCN3CCN(c4cccc(Cl)c4Cl)CC3)cc2[nH]1` [Compound 10, 7-(4-(4-(2,3-dichlorophenyl)piperazin-1-yl)butoxy)quinolin-2(1H)-one], under setting [1], a half-maximal effect (EC50) was put at 0.13 µM. For the same molecule, the maximal response (Emax) under setting [2] is 183%.

As for `O=C(/C=C/c1ccc(O)c(O)c1)N1CCN(c2cccc(Cl)c2Cl)CC1` [Compound 56], under setting [2], the maximal effect (Emax) is 180%. As for `O=c1ccc2ccc(OCCN3CCN(c4nc5ccccc5s4)CC3)cc2[nH]1` [Compound 35, 7-(2-(4-(benzothiazol-2-yl)piperazin-1-yl)ethoxy)quinolin-2(1H)-one], under setting [1], the EC50 amounted to 1.37 µM. Further, the Emax under setting [2] was 163%. As to `COc1ccc(NC(=O)CN2CCN(c3cccc(Cl)c3Cl)CC2)cc1N` [Compound 47, N-(3-amino-4-methoxyphenyl)-2-(4-(2,3-dichlorophenyl)piperazin-1-yl)acetamide], the half-maximal effective concentration (EC50) under setting [1] was 4.65 µM. Under setting [2], the Emax is 199%.

`O=C1CCc2cc(S(=O)(=O)N3CCN(c4cccc(C(F)(F)F)c4)CC3)ccc2N1` [Compound 157] yielded an EC50 under setting [1] of 2.61 µM. Also, under setting [2], the Emax was 155%.

In turn, `O=C1Cc2ccc(OCCCCN3CCN(c4nc5ccccc5s4)CC3)cc2N1` [Compound 44, 6-(4-(4-(benzo[d]thiazol-2-yl)piperazin-1-yl)butoxy)indolin-2-one] yielded an EC50 under setting [1] of 1.14 µM. Besides, the maximal response (Emax) under setting [2] is 235%. `O=C1COc2ccc(C(=O)CSCCSCC(=O)c3ccc4c(c3)NC(=O)CO4)cc2N1` [Compound 155]: under setting [2], the maximal response (Emax) was 125%.

Take `O=C1CCc2ccc(OCCNCCC3CC3c3cccc(Cl)c3Cl)cc2N1` (stereo not shown) [Compound 102, 7-(2-((2-(2-(2,3-dichlorophenyl)cyclopropyl)ethyl)amino)ethoxy)-3,4-dihydroquinolin-2(1H)-one]: the EC50 under setting [1] came out at 12.4 µM. Besides, the Emax under setting [2] was 170%.

Regarding `O=C1CCc2ccc(OCCCN3CCN(c4nc5ccccc5s4)CC3)cc2N1` [Compound 38, 7-(3-(4-(benzo[d]thiazol-2-yl)piperazin-1-yl)propoxy)-3,4-dihydroquinolin-2(1H)-one], the EC50 under setting [1] is 1.18 µM. Besides, the maximum response (Emax) under setting [2] was 157%.

Regarding `COc1cncc(C#CC(=O)N2CCN(c3cccc(Cl)c3Cl)CC2)c1` [Compound 72, 1-(4-(2,3-dichlorophenyl)piperazin-1-yl)-3-(5-methoxypyridin-3-yl)prop-2-yn-1-one], the maximal response (Emax) stood at 171%. The molecule also registered an EC50 under setting [1] of 3.24 µM. For the molecule `O=C(CN1CCN(C(=O)CCC2Cc3ccccc3NC2=O)CC1)Nc1ccccc1Cl` (stereo not shown) [Compound 140], the EC50 under setting [1] is 8.75 µM. Moreover, the Emax under setting [2] is 203%. For `O=C1CCc2ccc(OCCCCN3CCN(c4cccc(C(F)(F)F)c4)CC3)cc2N1` [Compound 6, 7-(4-(4-(3-(trifluoromethyl)phenyl)piperazin-1-yl)butoxy)-3,4-dihydroquinolin-2(1H)-one] the same measures were 1.27 µM and 215%. In turn, `COc1ccc(/C=C/CN2CCN(c3cccc(Cl)c3Cl)CC2)cc1OC` [Compound 60, (E)-1-(2,3-dichlorophenyl)-4-(3-(3,4-dimethoxyphenyl)allyl)piperazine] showed an EC50 under setting [1] of 1.28 µM. For the same molecule, the maximal effect (Emax) under setting [2] was 234%.

In the case of `COc1cccc(NC(=O)CNC(=O)N2CCN(c3cccc(Cl)c3Cl)CC2)c1` [Compound 68, 4-(2,3-dichlorophenyl)-N-(2-((3-methoxyphenyl)amino)-2-oxoethyl)piperazine-1-carboxamide], the maximal response (Emax) was 144%.

`O=C1CCc2ccc(OC#CCCN3CCN(c4cccc(Cl)c4Cl)CC3)cc2N1` [Compound 1, 7-((4-(4-(2,3-dichlorophenyl)piperazin-1-yl)but-1-yn-1-yl)oxy)-3,4-dihydroquinolin-2(1H)-one] registered an EC50 under setting [1] of 1.16 µM. In addition, the Emax under setting [2] is 183%. For `O=C1NCCc2ccc(OCCCCCN3CCN(c4cccc(Cl)c4Cl)CC3)cc21` [Compound 23, 7-((5-(4-(2,3-dichlorophenyl)piperazin-1-yl)pentyl)oxy)-3,4-dihydroisoquinolin-1(2H)-one] the same measures were 1.01 µM and 226%.

Take `O=C(/C=C/c1cc(O)c(O)c(O)c1)N1CCN(c2cccc(Cl)c2Cl)CC1` [Compound 55, (E)-1-(4-(2,3-dichlorophenyl)piperazin-1-yl)-3-(3,4,5-trihydroxyphenyl)prop-2-en-1-one]: the Emax under setting [2] is 134%. In the case of `COc1cc2c(cc1OC)N(CCCCN1CCN(c3cccc(C(F)(F)F)c3)CC1)C(=O)C2` [Compound 78, 5,6-dimethoxy-1-(4-(4-(3-(trifluoromethyl)phenyl)piperazin-1-yl)butyl)indol-2-one], the Emax was found to be 130%.

As to `O=C1CCc2ccc(OCCCCN3CCN(c4cccc(Cl)c4Cl)CC3)cc2N1` [Compound 2], it took 0.46 µM to reach a half-maximal effect under setting [1] (EC50). Further, the Emax under setting [2] is 155%. The like results for `O=C1CCc2ccc(OCCCCN3CCC(c4cccc(Cl)c4Cl)CC3)cc2N1` [Compound 19] were, in that order, 5.01 µM and 196%. For the molecule `CN(CCOCc1cccc(Cl)c1Cl)CCOc1ccc2c(c1)NC(=O)CC2` [Compound 98, 7-(2-((2-((2,3-dichlorobenzyl)oxy)ethyl)(methyl)amino)ethoxy)-3,4-dihydroquinolin-2(1H)-one], the maximum response (Emax) under setting [2] was 139%.

For `COc1ccc(/C=C/C(=O)N2CCN(c3nc4ccccc4s3)CC2)cc1OC` [Compound 74, (E)-1-(4-(benzo[d]thiazol-2-yl)piperazin-1-yl)-3-(3,4-dimethoxyphenyl)prop-2-en-1-one], the EC50 under setting [1] worked out at 12.1 µM. The maximal effect (Emax) under setting [2] is 182%.

With `Cc1cc2c(cc1S(=O)(=O)N(C)CC(=O)NCc1ccc(F)cc1)OCC(=O)N2` [Compound 142], the maximal response (Emax) under setting [2] is 126%. For `COc1ccc(NC(=O)CNC(=O)N2CCN(c3cccc(Cl)c3Cl)CC2)cc1OC` [Compound 65, 4-(2,3-dichlorophenyl)-N-(2-((3,4-dimethoxyphenyl)amino)-2-oxoethyl)piperazine-1-carboxamide], the maximal effect (Emax) is 133%. As for `CC1(C)CCC(C)(C)c2cc(NC(=O)C=CC(=O)N3CCN(c4cccc(Cl)c4Cl)CC3)ccc21` [Compound 30, 4-(4-(2,3-dichlorophenyl)piperazin-1-yl)-4-oxo-N-(5,5,8,8-tetramethyl-5,6,7,8-tetrahydronaphthalen-2-yl)but-2-enamide], under setting [2], the Emax is 132%.
